Test results published in patent US12540173B2, “Methods of treating cancer by targeting ZSCAN4 activity in cancer stem cells” (University of Maryland, Baltimore, priority 2019, dated 2026).
Read-outs that look alike come from different tables or passages of the source.

Legend:
[1] = test system: ZSCAN4 depleted Tu167 cells; settings: increasing doses, ZSCAN4 depleted Tu167 cells compared to isogenic NTC shRNA cells, MTT
From the text: FIG. 14. […] All data shown as mean±S.E.M. observed in triplicate in at least three independent experiments. Asterisks indicate: *p<0.05, **p<0.01, ***p<0.001.
Another hallmark of CSCs is multi-drug resistance, a major factor contributing to cancer recurrence. Therefore, we examined the role of ZSCAN4 in response to genotoxic drugs. To define the effect of ZSCAN4 on drug resistance, we measured cell viability after increasing doses of the DNA damaging drugs in ZSCAN4 depleted and control Tu167 cells.

[2] = test system: tet-ZSCAN4 cells; assay: Dox-regulated ZSCAN4 induction and clearance, immunoblot; format: cell-based, human
Method: FIG. 9. A, An illustration of the tet-ZSCAN4 expression vector. B, Image of tet-ZSCAN4 (Tu167) cells showing expression of GFP. C, Immunoblot analyses indicate ZSCAN4 is tightly regulated by Dox and localizes to the nucleus; Controls: LDH (cytosol), Lamin-B (nucleus). D, Doxycycline addition to the culture medium (Dox+) induces ZSCAN4 within 6 hours.
Immunoblot Assays. Cytosolic proteins were extracted by Cytoskeleton buffer (10 mM PIPES, 300 mM sucrose, 100 mM NaCl, 3 mM MgCl2, 1 mM EGTA and 0.5% Triton X100), and nucleoplasm fraction was isolated. Next, pellets were lysed in urea solution (8 M Urea in 0.01 Tris pH 8+0.1M NaH2PO4) and sonicated. Samples were electrophoresed in polyacrylamide gels. PVDF membranes were blocked with 5% nonfat milk or Superblock (Thermo Fisher Scientific) for 1 hour, then incubated overnight at 4° C. with the indicated primary antibodies in blocking solution (Table 2). Membranes were washed and incubated with secondary antibodies (1:5000) for 1 hour. Secondary antibodies were visualized by ECL Chemiluminescence (ThermoFisher Scientific). […]

[3] = test system: OCT3/4, SOX2, KLF4 and NANOG; assay: qPCR of pluripotent stem cell factors after ZSCAN4 knockdown; format: cell-based, human; settings: vs NTC-shRNA
Method: RNA extraction and Quantitative Reverse Transcriptase Polymerase Chain Reaction (qRT-PCR). One microgram of total RNA, isolated with Trizol, was reverse transcribed by Superscript III (Invitrogen) following the manufacturer's protocol. For qPCR, 10 ng cDNA was used per well in triplicate using SYBR green reaction mix (Roche) following the manufacturer's instructions with corresponding primers (Table 1). Reactions were run on the LightCycler 480 system (Roche). Fold induction was calculated by the delta-delta Ct method.
ZSCAN4 shRNAs were tested (19-mer sense, a hairpin loop, and 19-mer anti-sense oligos): shRNA1 (SEQ ID NO:3): 5′-[…] G-3′, shRNA2 (SEQ ID NO:4): 5′-[…] TG-3, shRNA3 (SEQ ID NO:5): 5′-[…] T-3 and two were cloned into the HuSH shRNA Plasmid pRFP-C-RS (Origene). Vectors were stably transfected into Tu167 or 012SCC cells by Effectene (QIAGEN) according to the manufacturer's protocol. As controls, isogenic cell lines were also generated expressing a non-targeting control shRNA (NTC-shRNA) or an Empty vector (same vector without an shRNA cassette). Cell lines were selected with 1 μg/ml Puromycin (ThermoFisher Scientific). Knockdown was confirmed by immunostaining and by qPCR.
Next, we used two of the shRNA sequences (shRNA1 and shRNA2) to generate stable knockdown cell lines (in Tu167 and 012SCC cells). Isogenic cells for each cell line with NTC-shRNA, or empty vector were used as controls. […] Our results further indicate a decrease in the CSC markers BMI1 and EZH2 (FIG. 5C).

## N.N.[Cl][Pt][Cl] [CPT, Cisplatin]
[1]
  cell viability: significantly decreased cell viability
[1]; listed as Cisplatin
  cell viability: hypersensitivity

## C[C@H]1c2cccc(O)c2C(=O)C2=C(O)[C@]3(O)C(=O)C(C(N)=O)=C(O)[C@@H](N(C)C)[C@@H]3[C@@H](O)[C@@H]21 [Dox, Doxycycline]
[2]
  time until ZSCAN4 is detectable after addition of Dox to the medium: ≤ 6 h

## Bleomycin [BLM]
[1]
  cell viability: dramatically reduced cell viability
[1]; listed as Bleomycin
  cell viability: hypersensitivity

## shRNA1: ZSCAN4 shRNA, SEQ ID NO:3: 5′-GAGAACGGTCCTAGGCCTGTCAAGAGGAGAACGGTCCTAGGCCTG-3′
[3]; 012SCC stable knockdown cells
  expression of OCT3/4, SOX2, KLF4 and NANOG: significant downregulation
[3]; 012SCC stable knockdown cells, listed as shRNA 1
  expression of OCT3/4, SOX2, KLF4 and NANOG: decreased expression
[3]; Tu167 stable knockdown cells
  expression of OCT3/4, SOX2, KLF4 and NANOG: significant downregulation
[3]; Tu167 stable knockdown cells, listed as shRNA 1
  expression of OCT3/4, SOX2, KLF4 and NANOG: decreased expression

## shRNA2: ZSCAN4 shRNA, SEQ ID NO:4: 5′-GATATCAGACCTACGGGTGTCAAGAGGATATCAGACCTACGGGTG-3′
[3]; 012SCC stable knockdown cells
  expression of OCT3/4, SOX2, KLF4 and NANOG: significant downregulation
[3]; 012SCC stable knockdown cells, listed as shRNA 2
  expression of OCT3/4, SOX2, KLF4 and NANOG: decreased expression
[3]; Tu167 stable knockdown cells
  expression of OCT3/4, SOX2, KLF4 and NANOG: significant downregulation
[3]; Tu167 stable knockdown cells, listed as shRNA 2
  expression of OCT3/4, SOX2, KLF4 and NANOG: decreased expression
